One data set relates to OCI-LY10. Description: CTG Cell Viability Assay - OCI-LY10. The format is cell-based, human. The method, boiled down:
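Viability read by CellTiter-Glo luminescence after 4 days at 37° C under 5% CO2 with compound (top 10 μM final, 1:3 steps, 9 doses, DMSO 0.2%). Three-parameter logistic fit gave IC50.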

Data set [1] concerns the target T1, IRAK4 (Homo sapiens (Human), UniProt Q9NWZ3). Description: Deep tandem mass tag (TMT) proteomics in OCI-LY10. The class given is cell-based. Conditions: OCI-LY10, 8 hours. The procedure: Total protein was isolated from OCI-LY10 cells treated with 10 nM I-30, 30 nM I-30 and 30 nM 2-{2-[(cyclopropylmethyl)amino]pyridin-4-yl}-N-[3-(difluoromethyl)-1-[4-({[2-(2-{3-[3-methyl-1-(1-methyl-2,6-dioxopiperidin-3-yl)-2-oxo-2,3-dihydro-1H-1,3-benzodiazol-4-yl]propoxy}ethoxy)ethyl]amino}methyl)phenyl]-1H-pyrazol-4-yl]-1,3-oxazole-4-carboxamide for 8 hours. Vehicle (DMSO)-treated cells were used as controls. Protein lysates, 2 biological replicates per condition, were prepared at 4 C in 8M urea, 75 mM NaCl, 1 mM EDTA in 50 mM Tris HCl (pH 8), 10 mM NaF, phosphatase inhibitor cocktail 2 (1:100; Sigma, P5726) and cocktail 3 (1:100; Sigma, P0044), 2 μg/mL aprotinin (Sigma, A6103), 10 μg/mL Leupeptin (Roche, 11017101001), and 1 mM PMSF (Sigma, 78830). Lysates were spun at 20,000 rcf for 10 min and supernatant (containing extracted proteins) was transferred to a clean microcentrifuge tube. Protein concentrations were determined using the Pierce BCA assay. […] Online fractionation was performed using a nanoflow Proxeon EASY-nLC 1200 UHPLC system (Thermo Fisher Scientific) and separated peptides were analyzed on a benchtop Orbitrap Q Exactive plus mass spectrometer (Thermo Fisher Scientific). All data were analyzed using Spectrum Mill software package (Agilent Technologies). […] In total, 10,992 proteins were quantified. […]

The next data set relates to OCI-LY10 cells. Put plainly: In vitro combination studies in OCI-LY10 (Chou-Talalay). The format is cell-based, human. The protocol:
The ABC-DLBCL cell line OCI-LY10 was MV4-11 cells were maintained in IMDM (Invitrogen, supplemented with 20% heat inactivated fetal bovine serum (Life Technologies, Grand Island, N.Y) plus+BME. Cultures were maintained in a humidified atmosphere including 5% CO2. Studies were performed using OCI-LY10 cells in vitro to evaluate the anti-proliferative effect of a combination of two agents together on cell growth. The cell counts were measured by ATP quantitation using the Promega Cell Titer Glo kit and luminescence values corresponded to the amount of ATP in a given well. Compounds evaluated for synergy were tested in a range which was bracketed around the IC50's. The compounds were plated to a 384 well plate in a matrix format which includes increasing concentrations of each drug in the combination in a constant ratio, in addition to the effect of each compound alone in the study. […] DMSO concentration was less than 0.2% v/v.
The drug combination analysis was performed utilizing the Chou-Talalay method [Chou TC Pharmacological Reviews 2006]. Maximum and minimum inhibition (DMSO alone) controls were used in each plate to calculate fraction affected (Fa) of a test well. […] Synergy was determined using the software package Calcusyn by Biosoft. Graphs representing values of combination index (CI) versus Fractional effect (Fa) known as Fa-CI plots were generated and synergy was evaluated.

Data set [2] is described as follows: Oral exposure / bioavailability of I-75. The class given is in vivo, rat, dog, and monkey. Conditions: FIG. 11.
Data set [3] concerns the target T1, IRAK4. Description: IRAK4 degradation in OCI-LY10 (DC50). The class given is cell-based.
For data set [4], the target named is T1, IRAK4. Put plainly: IRAK4 WB degradation (DC50). The class given is cell-based.

T1 sequence (Q9NWZ3 whole entry): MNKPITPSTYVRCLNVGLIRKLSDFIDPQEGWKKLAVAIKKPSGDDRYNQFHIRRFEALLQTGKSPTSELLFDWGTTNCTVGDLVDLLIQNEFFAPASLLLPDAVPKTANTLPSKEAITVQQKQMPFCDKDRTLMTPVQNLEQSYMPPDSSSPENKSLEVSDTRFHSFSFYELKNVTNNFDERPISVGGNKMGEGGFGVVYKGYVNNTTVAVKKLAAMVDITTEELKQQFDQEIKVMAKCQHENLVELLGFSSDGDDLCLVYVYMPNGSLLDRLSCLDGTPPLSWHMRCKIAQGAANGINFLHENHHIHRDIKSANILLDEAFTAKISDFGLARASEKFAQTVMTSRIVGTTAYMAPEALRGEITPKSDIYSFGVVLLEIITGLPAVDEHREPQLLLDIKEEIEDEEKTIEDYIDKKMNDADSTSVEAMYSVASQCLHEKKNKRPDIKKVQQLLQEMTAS

Regarding `CN(CCCOCCCc1cccc2c1n(C)c(=O)n2C1CCC(=O)NC1=O)C[C@H]1CC[C@H](n2cc(NC(=O)c3coc(-c4ccnc(NCC5CC5)c4)n3)c(C(F)F)n2)CC1` (mixture of isomers) [I-30, 2-[2-(Cyclopropylmethylamino)-4-pyridyl]-N-[3-(difluoromethyl)-1-[4-[[3-[3-[1-(2,6-dioxo-3-piperidyl)-3-methyl-2-oxo-benzimidazol-4-yl]propoxy]propyl-methyl-amino]methyl]cyclohexyl]pyrazol-4-yl] oxazole-4-carboxamide], the “cytotoxicity in OCI-LY10 lymphoma line” value in the data set with OCI-LY10 (FIG. 5) is given as “cytotoxic”. The IC50 (usually the midpoint of a concentration-inhibition curve) with OCI-LY10 (Homo sapiens, OCI-Ly10, 96 h, OCI-LY10, 4 days, read-out: CTG Cell Viability Assay - OCI-LY10: Average external-IC50) was in the range of 0.1 to 0.5 µM. In addition, the “selectivity for IRAK4 vs. other proteins in OCI-LY10 (proteomics)” value on IRAK4 [1] was “highly selective for IRAK4 vs. >10,000 other proteins”. In the data set on OCI-LY10 cells (OCI-LY10 bearing MYD88 L265P and CD79 mutations, within 72 h, FIG. 12), the “apoptosis, combined with a BTK inhibitor” value is “greater than additive increase in apoptosis”. For the same compound, the “synergy with BTK inhibition vs cell viability” value with OCI-LY10 cells (four day Cell Titer Glo read out) is given as “synergistic”.

As for `CN(C[C@H]1CC[C@H](n2cc(NC(=O)c3coc(-c4ccnc(NCC5CC5)c4)n3)c(C(F)F)n2)CC1)C1CCN(Cc2cccc3c2n(C)c(=O)n3C2CCC(=O)NC2=O)CC1` (stereo partly shown) [I-75, 2-(2-((cyclopropylmethyl)amino)pyridin-4-yl)-N-(3-(difluoromethyl)-1-((1r,4r)-4-(((1-((1-(2,6-dioxopiperidin-3-yl)-3-methyl-2-oxo-2,3-dihydro-1H-benzo[d]imidazol-4-yl)methyl)piperidin-4-yl)(methyl)amino)methyl)cyclohexyl)-1H-pyrazol-4-yl)oxazole-4-carboxamide], the oral bioavailability result in data set [2] (rat, dog, and monkey) is “oral bioavailable”. Moreover, in data set [2] (up to 300 mg/kg), the “oral exposure in plasma” value is “dose proportional oral exposure in plasma”. In addition, the DC50 (in general, the concentration at which degradation of the target reaches its halfway point) at IRAK4 [3] (read-out: IRAK4 Degradation in OCI-LY10, DC50) worked out at 0.008 µM; at IRAK4 [3] (read-out: IRAK4 OCI-LY10 DC50), 0.008 µM; at IRAK4 [4], 0.023 µM.
